We go through 26 molecules from patent publication US6602900B2, “Cyclopentane heptan(ENE)oic acid, 2-heteroarylalkenyl derivatives as therapeutic agents” (Allergan, Inc., priority 1992, dated 2003).

One series addresses T1, TP receptor (Rattus norvegicus, UniProt P34978).
T1 construct: rings of the isolated rat thoracic aorta; from tissue; host or cells: isolated rat thoracic aorta rings
T1 sequence (P34978 1-341): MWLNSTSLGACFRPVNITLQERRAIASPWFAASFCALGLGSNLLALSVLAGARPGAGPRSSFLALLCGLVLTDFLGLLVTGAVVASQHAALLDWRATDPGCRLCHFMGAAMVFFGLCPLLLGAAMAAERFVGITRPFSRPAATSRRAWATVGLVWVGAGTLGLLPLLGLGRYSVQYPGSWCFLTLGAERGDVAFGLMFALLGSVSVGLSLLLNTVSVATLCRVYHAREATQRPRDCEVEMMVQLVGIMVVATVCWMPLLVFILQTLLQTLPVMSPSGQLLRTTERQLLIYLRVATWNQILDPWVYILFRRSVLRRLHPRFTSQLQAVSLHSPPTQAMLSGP
The series is described as follows: TP-vasoconstrictor activity: contraction of rings of the isolated rat thoracic aorta. It counts as cell-based. The procedure:
(§1) Activity at different prostanoid receptors was measured in vitro in isolated smooth muscle preparations. FP-activity was measured as contraction of the isolated feline iris sphincter. EP1-activity was measured as contraction of the longitudinal smooth muscle of the isolated guinea pig ileum. EP3-activity was measured as inhibition of the twitch response induced by electrical field stimulation in the isolated guinea pig was deferens and as contraction of the longitudinal smooth muscle of the isolated chick ileum. Activity was also measured as relaxation of smooth muscle of isolated rabbit jugular vein a preparation which appears to contain a unique PGF2α-sensitive receptor provisionally termed FPVASC. TP-vasoconstrictor activity was measured as contraction of rings of the isolated rat thoracic aorta. Effects on platelets from healthy human donors were measured by incubating platelet-rich plasma with the compounds described herein. Inhibition of aggregation was determined by the ability of the compounds described herein to inhibit platelet aggregation in platelet-rich plasma induced by 20 μM ADP.

For a further series, the target named is T2, EP1 receptor (Cavia porcellus, UniProt A0A286XHJ6).
T2 sequence (A0A286XHJ6 1-405): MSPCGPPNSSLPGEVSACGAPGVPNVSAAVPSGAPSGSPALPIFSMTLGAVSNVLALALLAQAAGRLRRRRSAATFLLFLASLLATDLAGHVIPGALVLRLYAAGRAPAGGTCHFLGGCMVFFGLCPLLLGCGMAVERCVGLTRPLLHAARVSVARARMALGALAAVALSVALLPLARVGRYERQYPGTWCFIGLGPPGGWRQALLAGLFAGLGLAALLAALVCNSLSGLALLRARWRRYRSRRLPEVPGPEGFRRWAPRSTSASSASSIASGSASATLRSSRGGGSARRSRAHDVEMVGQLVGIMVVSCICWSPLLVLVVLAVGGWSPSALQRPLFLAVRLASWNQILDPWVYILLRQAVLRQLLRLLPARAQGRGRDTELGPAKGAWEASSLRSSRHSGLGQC
The series is described as follows: EP1-activity: contraction of the longitudinal smooth muscle of the isolated guinea pig ileum. The series is classed as cell-based. How it is done: as §1

The test system of series [1] is PGF2α-sensitive receptor provisionally termed FPVASC. The series is described as follows: Relaxation of smooth muscle of isolated rabbit jugular vein. It counts as cell-based. How it is done: as §1
The target of the next series is T3, EP3 receptor (UniProt A0A286XLZ9).
T3 sequence (A0A286XLZ9 1-363): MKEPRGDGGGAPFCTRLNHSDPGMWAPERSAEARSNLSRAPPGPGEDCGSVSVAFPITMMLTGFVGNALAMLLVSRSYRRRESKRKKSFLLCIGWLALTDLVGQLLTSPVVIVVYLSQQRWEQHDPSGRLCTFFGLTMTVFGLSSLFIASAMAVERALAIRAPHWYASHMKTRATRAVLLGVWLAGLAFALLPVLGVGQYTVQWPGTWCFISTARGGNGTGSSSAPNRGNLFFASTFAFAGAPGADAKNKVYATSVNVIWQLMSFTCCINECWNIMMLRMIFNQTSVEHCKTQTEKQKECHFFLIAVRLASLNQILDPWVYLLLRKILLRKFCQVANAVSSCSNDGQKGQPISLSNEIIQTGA
The series is described as follows: EP3-activity: inhibition of the twitch response induced by electrical field stimulation in the isolated guinea pig vas deferens. It counts as cell-based. Particulars: pa = printed beside some values, read-out: EC50 (nM) EP3, first value of the cell. How it is done: as §1

The subject of another series is Dog eye (hyperemia). The series is described as follows: Ocular surface hyperemia in dogs after topical dosing. It counts as in vivo. Also noted: scale not given here.
Another series relates to Dog eye (miosis). The series is described as follows: Miosis in dogs after topical dosing. The series is classed as in vivo.
Where [2] appears, read: isolated rat thoracic aorta contraction, read-out: EC50 (nM) TP.
Where [3] appears, read: isolated rabbit jugular vein relaxation, read-out: EC50 (nM) FPVASC.
The mark [4] stands for this setting: Table of compounds 17a-25, unit inferred, read-out: rtTPva.
Setting [5] is: read-out: rbFPv/EP4, Table of compounds 17a-25, unit inferred.

Like-named read-outs stand apart in the source and are kept apart here. Where only a bound is given, the exact number is not on record here.

As for `NC(=O)CCC/C=C\C[C@@H]1[C@@H](/C=C/[C@@H](O)CCc2ccsc2)[C@H](O)C[C@@H]1O`, the EC50 at TP receptor (setting [2]) is more than 10000 nM; at EP1 receptor, more than 10000 nM; in series [1] (setting [3]), 3.6 nM; on EP3 receptor it was more than 10000 nM.
On to `O=C(O)CCC/C=C\C[C@@H]1[C@@H](/C=C/[C@H](O)CCc2ccsc2)[C@H](O)C[C@@H]1O`, for which the EC50 in series [1] (setting [3]) came out at 58 nM.
With `NC(=O)CCC/C=C\C[C@@H]1[C@@H](/C=C/[C@H](O)CCc2ccsc2)[C@H](O)C[C@@H]1O`, the “Hyp (hyperemia score)” value in the series on Dog eye (hyperemia) (0.1%) is 0.72. The Miosis result in the series with Dog eye (miosis) (0.1%) is “pin”.
Regarding `O=C(O)CCC/C=C\C[C@@H]1[C@@H](CC[C@@H](O)CCc2ccsc2)[C@H](O)C[C@@H]1O`, the EC50 on TP receptor (setting [2]) was 4740 nM; on EP1 receptor it was more than 10000 nM; in series [1] (setting [3]), 545 nM; at EP3 receptor, 105 nM.
`O=C(O)CCC/C=C\C[C@@H]1[C@@H](/C=C/[C@@H](O)CCc2ccoc2)[C@H](O)C[C@@H]1O`: the entries for the “Hyp (hyperemia score)” value with Dog eye (hyperemia) (0.01%) and with Dog eye (hyperemia) (0.1%) were 0.83 and 0.38, respectively. The EC50 at TP receptor (setting [2]) is 5400 nM; on EP1 receptor, more than 10000 nM; at EP3 receptor, 83 nM. In addition, the figures for the Miosis result in the series on Dog eye (miosis) (0.01%) and with Dog eye (miosis) (0.1%) were “mild” and “pinpoint”, respectively.
In the case of `O=C(O)CCC/C=C\C[C@@H]1[C@@H](CCC(O)CCc2ccoc2)[C@H](O)C[C@@H]1O` (some centres unmarked), in series [1] (setting [3]), the EC50 was more than 5880 nM.
`Cc1sccc1CC[C@H](O)/C=C/[C@@H]1[C@@H](C/C=C\CCCC(=O)O)[C@@H](O)C[C@H]1O`: the EC50 on TP receptor (setting [2]) is 3980 nM; at EP1 receptor it was more than 10000 nM; in series [1] (setting [3]), more than 833 nM; at EP3 receptor, 355 nM.
For `O=C(O)CCC/C=C\C[C@@H]1[C@@H](/C=C/[C@@H](O)CCc2cc3ccccc3o2)[C@H](O)C[C@@H]1O`, the “Hyp (hyperemia score)” value with Dog eye (hyperemia) (0.01%) is given as 0.17; in the series with Dog eye (hyperemia) (0.1%) it was 0.13. The Miosis in the series on Dog eye (miosis) (0.01%) and in the series on Dog eye (miosis) (0.1%) was 0 in each case. Further, the EC50 in series [1] (setting [3]) is more than 69000 nM; on EP3 receptor it was 9000 nM.
With `O=C(O)CCC/C=C\C[C@@H]1[C@@H](/C=C/[C@@H](O)CCc2cc3ccccc3s2)[C@H](O)C[C@@H]1O`, the EC50 in series [1] (setting [3]) was 2660 nM; on EP3 receptor, approximately 10000 nM.
Turning to `Cc1ccc(CC[C@H](O)/C=C/[C@@H]2[C@@H](C/C=C\CCCC(=O)O)[C@@H](O)C[C@H]2O)s1`, the EC50 was more than 10000 nM at TP receptor (setting [2]), more than 10000 nM on EP1 receptor, more than 7690 nM in series [1] (setting [3]) and 341 nM at EP3 receptor.
`O=C(O)CCC/C=C\C[C@@H]1[C@@H](/C=C/[C@@H](O)CCc2cc(Br)cs2)[C@H](O)C[C@@H]1O`: the EC50 at TP receptor (setting [2]) was 371 nM; on EP1 receptor it was more than 10000 nM; in series [1] (setting [3]) it was 16 nM; at EP3 receptor, 50 nM.
For `O=C(O)CCC/C=C\C[C@@H]1[C@@H](/C=C/[C@@H](O)CCc2nccs2)[C@H](O)C[C@@H]1O`, the “Hyp (hyperemia score)” value in the series on Dog eye (hyperemia) (0.1%) was 0.6. Moreover, in the series with Dog eye (miosis) (0.1%), the Miosis entry is given as “pinpoint”. Moreover, in series [1] (setting [3]), the EC50 amounted to 1000 nM.
Take `O=C(O)CCC/C=C\C[C@@H]1[C@@H](/C=C/[C@H](O)CCc2nccs2)[C@H](O)C[C@@H]1O`: the EC50 in series [1] (setting [3]) was 28300 nM.
Consider `O=C(O)CCC/C=C\C[C@@H]1[C@@H](/C=C/[C@@H](O)CCc2sccc2Cl)[C@H](O)C[C@@H]1O`, for which the EC50 at TP receptor (setting [2]) was 3530 nM; at EP1 receptor, more than 10000 nM; in series [1] (setting [3]) it was 122 nM.
Take `CCc1ccc(CC[C@H](O)/C=C/[C@@H]2[C@@H](C/C=C\CCCC(=O)O)[C@@H](O)C[C@H]2O)s1`: the EC50 was more than 10000 nM on TP receptor (setting [2]) and 21 nM in series [1] (setting [3]).
Take `NC(=O)CCC/C=C\C[C@@H]1[C@@H](/C=C/[C@@H](O)CCc2cc(Cl)sc2Cl)[C@H](O)C[C@@H]1O`: the “Hyp (hyperemia score)” value with Dog eye (hyperemia) (0.1%) is 1.2. The EC50 is more than 10000 nM at TP receptor (setting [2]) and 82 nM in series [1] (setting [3]). For the same molecule, the Miosis entry with Dog eye (miosis) (0.1%) is “pinpoint”.
Take `N#Cc1ccc(CC[C@H](O)/C=C/[C@@H]2[C@@H](C/C=C\CCCC(=O)O)[C@@H](O)C[C@H]2O)s1` [Compound 17a, 7-[3α,5α-Dihydroxy-2-(3α-hydroxy-5-(2-(5-cyano)thienyl)-1E-pentenyl)cyclopentyl]-5Z-heptenoic acid]: the results for the EC50 (at TP receptor (setting [4]); in series [1] (setting [5])) were approximately 10000 nM and 112 nM, respectively.
Regarding `N#Cc1ccc(CC[C@H](O)/C=C/[C@@H]2[C@@H](C/C=C\CCCC(N)=O)[C@@H](O)C[C@H]2O)s1` [Compound 17b, 7-[3α,5α-Dihydroxy-2-(3α-hydroxy-5-(2-(5-cyano)thienyl)-1E-pentenyl)cyclopentyl]-5Z-heptenamide], the EC50 in series [1] (setting [5]) was more than 256000 nM.
As to `CC(C)OC(=O)CCC/C=C\C[C@@H]1[C@@H](/C=C/[C@@H](O)CCc2ccc(C#N)s2)[C@H](O)C[C@@H]1O` [Compound 17c, Isopropyl-7-[3α,5α-Dihydroxy-2-(3α-hydroxy-5-(2-(5-cyano)thienyl)-1-E-pentenyl)cyclopentyl]-5Z-heptenoate], the EC50 in series [1] (setting [5]) was 6510 nM.
On to `O=C(O)CCC/C=C\C[C@@H]1[C@@H](/C=C/[C@@H](O)CCc2sccc2F)[C@H](O)C[C@@H]1O` [Compound 18b], for which the EC50 at TP receptor (setting [4]) was 3500 nM; in series [1] (setting [5]), 2.9 nM.
As to `CS(=O)(=O)NC(=O)CCC/C=C\C[C@@H]1[C@@H](/C=C/[C@@H](O)CCc2ccc(Cl)s2)[C@H](O)C[C@@H]1O` [Compound 20a, N-Methylsulfonyl-7-[3α,5α-Dihydroxy-2-(3α-hydroxy-5-(2-(5-chloro)thienyl)-1E-pentenyl)cyclopentyl]-5Z-heptenamide], the EC50 in series [1] (setting [5]) is 6070 nM.
Still for that read-out and setting: under `CCS(=O)(=O)NC(=O)CCC/C=C\C[C@@H]1[C@@H](/C=C/[C@@H](O)CCc2ccc(Cl)s2)[C@H](O)C[C@@H]1O` [Compound 20b, N-Ethylsulfonyl-7-[3α,5α-Dihydroxy-2-(3α-hydroxy-5-(2-(5-chloro)thienyl)-1E-pentenyl)cyclopentyl]-5Z-heptenamide] stands 1040 nM.
Regarding `O=C(CCC/C=C\C[C@@H]1[C@@H](/C=C/[C@@H](O)CCc2ccc(Cl)s2)[C@H](O)C[C@@H]1O)NS(=O)(=O)C(F)(F)F` [Compound 20c, N-Trifluoromethylsulfonyl-7-[3α,5α-Dihydroxy-2-(3α-hydroxy-5-(2-(5-chloro)thienyl)-1E-pentenyl)cyclopentyl]-5Z-heptenamide], the values for the EC50 (on TP receptor (setting [4]); in series [1] (setting [5])) were more than 10000 nM and 221 nM, respectively.
As to `CS(=O)(=O)NC(=O)CCC/C=C\C[C@@H]1[C@@H](/C=C/[C@@H](O)CCc2ccc(I)s2)[C@H](O)C[C@@H]1O` [Compound 21a, N-Methylsulfonyl-7-[3α,5α-Dihydroxy-2-(3α-hydroxy-5-(2-(5-iodo)thienyl)-1E-pentenyl)cyclopentyl]-5Z-heptenamide], in series [1] (setting [5]), the EC50 was determined as 1820 nM.
The same measure, in the same setting: under `CCS(=O)(=O)NC(=O)CCC/C=C\C[C@@H]1[C@@H](/C=C/[C@@H](O)CCc2ccc(I)s2)[C@H](O)C[C@@H]1O` [Compound 21b, N-Ethylsulfonyl-7-[3α,5α-Dihydroxy-2-(3α-hydroxy-5-(2-(5-iodo)thienyl)-1E-pentenyl)cyclopentyl]-5Z-heptenamide] stands 189 nM; under `O=C(CCC/C=C\C[C@@H]1[C@@H](/C=C/[C@@H](O)CCc2ccc(I)s2)[C@H](O)C[C@@H]1O)NS(=O)(=O)C(F)(F)F` [Compound 21c, N-Trifluoromethylsulfonyl-7-[3α,5α-Dihydroxy-2-(3α-hydroxy-5-(2-(5-iodo)thienyl)-1E-pentenyl)cyclopentyl]-5Z-heptenamide], 36 nM.
